{"source": "patent US20230330093A1", "about": "“APPLICATION OF NITROGEN-CONTAINING SATURATED HETEROCYCLIC COMPOUND” (SHANGHAI PHARMACEUTICALS HOLDING CO., LTD., priority 2020, published 2023)", "key": {"[1]": {"system": "rhesus monkeys with spontaneous chronic kidney disease", "experiment": "Effect on plasma creatinine Cr-P, 8-week administration", "type": "in vivo, Macaca mulatta (Rhesus Macaque)", "description": "In the trial, animals were brought in three stages. […] Glomerular filtration rate […]: creatinine (Cr-P), urea nitrogen (BUN) and cystatin (CysC) were detected, and the eGFR value was obtained by calculation. It was performed once before the administration and once every two weeks after the administration. […] ELISA kit was used for NT-proBNP test. [table]"}, "[2]": {"system": "rhesus monkeys with spontaneous chronic kidney disease", "experiment": "Effect on blood pressure (SBP, DBP, MBP, HR) after anesthesia, 8-week administration", "type": "in vivo, Macaca mulatta (Rhesus Macaque)", "details": "for DBP / SBP: 1 mg/kg qd (n = 5)", "from_the_text": "In the trial, animals were brought in three stages.\nRoute of administration: Oral administration.\nAfter anesthesia, the animal was placed in a supine position. The left upper arm was shaved clean, and a suitable size cuff was tied according to the standard. The blood oxygen probe was clamped on the animal's finger or toe (except for the left hand), and the red light-sensitive surface was on the side of the finger pad. The blood pressure of the animal was continuously measured for 3 times in the automatic mode with an interval of 1 min. If the difference of DBP, SBP and MBP of blood pressure measured more than three times was not significant (the difference between the highest value and the lowest value was less than 15 mmHg), the measurement was completed.\nTesting equipment: GE B40i electrophysiological monitor.\nSee Table 16 for the effects of administration of each administration group on blood pressure. The blood pressure test of primates required anesthesia, so it was necessary to control the variability of heart rate at various time points to make statistics."}}, "note": "Values joined by “and” are separate entries in the source; they are usually repeats but may differ in a detail not shown here. Identical values can stand only once.", "data": [{"smiles": "COC(=O)NCCCn1nc([C@@H](C)N(C(=O)[C@H]2CNCCO2)C2CC2)c2ccc(C)nc21.O=C(O)C[C@H](O)C(=O)O", "note": "[malate of compound of Formula I]", "values": [{"measurement": "Cr-P", "setting": "[1]; 1 mg/kg (n = 5), 2 weeks", "value": "1.21 mg/dL and 1.07 mg/dL and 1.12 mg/dL and 1.13 mg/dL and 1.24 mg/dL"}, {"measurement": "Cr-P", "setting": "[1]; 1 mg/kg (n = 5), 2 weeks, mean", "value": "1.15 ± 0.07", "unit": "mg/dL"}, {"measurement": "Cr-P", "setting": "[1]; 1 mg/kg (n = 5), 4 weeks", "value": "1.11 mg/dL and 1.01 mg/dL and 1.12 mg/dL and 1.06 mg/dL and 1.26 mg/dL"}, {"measurement": "Cr-P", "setting": "[1]; 1 mg/kg (n = 5), 4 weeks, mean", "value": "1.11 ± 0.09", "unit": "mg/dL"}, {"measurement": "Cr-P", "setting": "[1]; 1 mg/kg (n = 5), 6 weeks", "value": "1.16 mg/dL and 1.07 mg/dL and 1.22 mg/dL"}, {"measurement": "Cr-P", "setting": "[1]; 1 mg/kg (n = 5), 6 weeks, mean", "value": "1.12 ± 0.07", "unit": "mg/dL"}, {"measurement": "Cr-P", "setting": "[1]; 1 mg/kg (n = 5), 8 weeks", "value": "1.14 mg/dL and 1.01 mg/dL and 1.17 mg/dL and 1.18 mg/dL and 1.22 mg/dL"}, {"measurement": "Cr-P", "setting": "[1]; 1 mg/kg (n = 5), 8 weeks, mean", "value": "1.14 ± 0.08", "unit": "mg/dL"}, {"measurement": "Cr-P", "setting": "[1]; 1 mg/kg (n = 5), Baseline, single animals and Mean ± SD", "value": "1.25 mg/dL and 1.03 mg/dL and 1.09 mg/dL and 1.05 mg/dL and 1.21 mg/dL"}, {"measurement": "Cr-P", "setting": "[1]; 1 mg/kg (n = 5), Baseline, single animals and Mean ± SD, mean", "value": "1.13 ± 0.10", "unit": "mg/dL"}, {"measurement": "Cr-P", "setting": "[1]; 2 mg/kg (n = 5), 2 weeks", "value": "1.1 mg/dL and 1.19 mg/dL and 1.52 mg/dL and 1.54 mg/dL and 1.11 mg/dL"}, {"measurement": "Cr-P", "setting": "[1]; 2 mg/kg (n = 5), 2 weeks, mean", "value": "1.29 ± 0.22", "unit": "mg/dL"}, {"measurement": "Cr-P", "setting": "[1]; 2 mg/kg (n = 5), 4 weeks", "value": "1.15 mg/dL and 1.44 mg/dL and 1.47 mg/dL and 1.26 mg/dL and 1.09 mg/dL"}, {"measurement": "Cr-P", "setting": "[1]; 2 mg/kg (n = 5), 4 weeks, mean", "value": "1.28 ± 0.17", "unit": "mg/dL"}, {"measurement": "Cr-P", "setting": "[1]; 2 mg/kg (n = 5), 6 weeks", "value": "1.17 mg/dL and 1.27 mg/dL and 1.43 mg/dL and 1.34 mg/dL and 1.04 mg/dL"}, {"measurement": "Cr-P", "setting": "[1]; 2 mg/kg (n = 5), 6 weeks, mean", "value": "1.25 ± 0.15", "unit": "mg/dL"}, {"measurement": "Cr-P", "setting": "[1]; 2 mg/kg (n = 5), 8 weeks", "value": "1.17 mg/dL and 1.29 mg/dL and 1.4 mg/dL and 1.3 mg/dL and 1.11 mg/dL"}, {"measurement": "Cr-P", "setting": "[1]; 2 mg/kg (n = 5), 8 weeks, mean", "value": "1.25 ± 0.11", "unit": "mg/dL"}, {"measurement": "Cr-P", "setting": "[1]; 2 mg/kg (n = 5), Baseline, single animals and Mean ± SD", "value": "1.15 mg/dL and 1.14 mg/dL and 1.36 mg/dL and 1.42 mg/dL and 1.06 mg/dL"}, {"measurement": "Cr-P", "setting": "[1]; 2 mg/kg (n = 5), Baseline, single animals and Mean ± SD, mean", "value": "1.23 ± 0.16", "unit": "mg/dL"}, {"measurement": "Cr-P", "setting": "[1]; 5 mg/kg (n = 6), 2 weeks", "value": "0.92 mg/dL and 1.14 mg/dL and 0.88 mg/dL and 1.12 mg/dL and 1.40 mg/dL and 0.96 mg/dL"}, {"measurement": "Cr-P", "setting": "[1]; 5 mg/kg (n = 6), 2 weeks, mean", "value": "1.07 ± 0.19", "unit": "mg/dL"}, {"measurement": "Cr-P", "setting": "[1]; 5 mg/kg (n = 6), 4 weeks", "value": "0.85 mg/dL and 1.26 mg/dL and 0.89 mg/dL and 1.15 mg/dL and 1.13 mg/dL and 1.33 mg/dL"}, {"measurement": "Cr-P", "setting": "[1]; 5 mg/kg (n = 6), 4 weeks, mean", "value": "1.10 ± 0.19", "unit": "mg/dL"}, {"measurement": "Cr-P", "setting": "[1]; 5 mg/kg (n = 6), 6 weeks", "value": "0.87 mg/dL and 1.42 mg/dL and 1.02 mg/dL and 1.06 mg/dL and 1.12 mg/dL and 1.32 mg/dL"}, {"measurement": "Cr-P", "setting": "[1]; 5 mg/kg (n = 6), 6 weeks, mean", "value": "1.14 ± 0.20", "unit": "mg/dL"}, {"measurement": "Cr-P", "setting": "[1]; 5 mg/kg (n = 6), 8 weeks", "value": "0.85 mg/dL and 1.22 mg/dL and 0.95 mg/dL and 1.04 mg/dL and 1.11 mg/dL and 1.18 mg/dL"}, {"measurement": "Cr-P", "setting": "[1]; 5 mg/kg (n = 6), 8 weeks, mean", "value": "1.06 ± 0.14", "unit": "mg/dL"}, {"measurement": "Cr-P", "setting": "[1]; 5 mg/kg (n = 6), Baseline, single animals and Mean ± SD", "value": "0.90 mg/dL and 1.53 mg/dL and 1.10 mg/dL and 0.99 mg/dL and 1.43 mg/dL and 1.79 mg/dL"}, {"measurement": "Cr-P", "setting": "[1]; 5 mg/kg (n = 6), Baseline, single animals and Mean ± SD, mean", "value": "1.29 ± 0.35", "unit": "mg/dL"}, {"measurement": "DBP", "setting": "[2]; 4 weeks", "value": "51 mmHg and 54 mmHg and 65 mmHg"}, {"measurement": "SBP", "setting": "[2]; 4 weeks", "value": "104 mmHg and 109 mmHg and 124 mmHg"}, {"measurement": "DBP", "setting": "[2]; 4 weeks, mean", "value": "61 ± 12", "unit": "mmHg"}, {"measurement": "SBP", "setting": "[2]; 4 weeks, mean", "value": "118 ± 17", "unit": "mmHg"}, {"measurement": "DBP", "setting": "[2]; 8 weeks", "value": "53 mmHg and 49 mmHg"}, {"measurement": "SBP", "setting": "[2]; 8 weeks", "value": "94 mmHg and 89 mmHg and 114 mmHg"}, {"measurement": "DBP", "setting": "[2]; 8 weeks, mean", "value": "60 ± 12", "unit": "mmHg"}, {"measurement": "SBP", "setting": "[2]; 8 weeks, mean", "value": "111 ± 20", "unit": "mmHg"}, {"measurement": "DBP", "setting": "[2]; Baseline", "value": "54 mmHg and 56 mmHg and 60 mmHg and 59 mmHg and 70 mmHg"}, {"measurement": "DBP", "setting": "[2]; Baseline, mean", "value": "60 ± 6", "unit": "mmHg"}, {"measurement": "SBP", "setting": "[2]; Baseline, single animals and Mean ± SD", "value": "101 mmHg and 105 mmHg and 125 mmHg and 121 mmHg and 129 mmHg"}, {"measurement": "SBP", "setting": "[2]; Baseline, single animals and Mean ± SD, mean", "value": "116 ± 13", "unit": "mmHg"}, {"measurement": "DBP reduced by on average, compared with the baseline", "setting": "[2]; 1 mg/kg qd (n=5), after W8 administration, p<0.05 vs placebo", "value": "5±4", "unit": "mmHg"}]}]}
